This is an account of results in paper PMC8748556, “CXCR4 peptide-based fluorescence endoscopy in a mouse model of Barrett’s esophagus” (EJNMMI Research, 2022).

The format of series [1] is physicochemical. As to conditions: pH 7.4. On the procedure:
Given promising data obtained with MK007 in our preclinical mouse model, we performed preliminary in vitro studies on human cell lines. Competition binding studies (IC50) were performed using Jurkat cells (4 × 10^5 cells/sample) and [^125I]FC131 as radioligand. […] To determine the log P of MK007, the corresponding non-iodinated precursor was radioiodinated using the Iodogen method, and the octanol/PBS partition coefficient of [^125I]MK007 was determined using a modified shake-flask-method.

Series [2] deals with dysplastic lesions of L2-IL1B mice. Put plainly: Fluorescence molecular endoscopy. The format is in vivo. As to conditions: L2-IL1B mice 12-14 months, 60 nmol i.v., 4 h p.i.; lesion vs normal surrounding esophageal tissue; mean ± SEM, 3 mice, 2-5 lesions per mouse. On the procedure: Three L2-IL1B mice (12–14 months old) were used for fluorescence molecular endoscopy before ex vivo imaging. Endoscopy was performed after sacrificing the mice at 4 h p.i. of MK007 using a homemade system previously developed by our group and optimized for small animal imaging. Briefly, the endoscopy system consisted of a flexible fiberscope (Micrendo-Fiberskop, SCHÖLLY FIBER OPTIC GMBH, Denzlingen, Germany) where both white light (provided by a 250-W halogen lamp, KL-2500 LCD, Schott AG, Mainz, Germany) and fluorescence (fiber coupled continuous wave (CW) laser diode emitting at 670 nm, SLD1332V, Thorlabs, Newton, NJ, USA) are coupled, allowing simultaneous color and near-infrared (NIR) fluorescence endoscopy. Videos in color and fluorescence channel were recorded using a custom-made endoscopy software and stored in AVI file format. Two NaCl-injected IL1B mice (17 and 12 months old) were used as negative controls for the validation of the endoscopy system. […] For quantification of Sulfo-Cy5 signal, single frames or frame sequences showing dysplastic lesions were used and the fluorescence signal from the target lesion and the background were quantified with ImageJ by handmade ROIs. […] The TBR was then calculated by dividing the mean fluorescence intensity from the lesion by the one from the background region.

The subject of series [3] is dysplastic lesions at the squamocolumnar junction of L2-IL1B mice. In kind it is in vivo, mouse. On the procedure: Five 12-to-16-month-old IL1B mice were intravenously injected into the tail vein with 60 nmol of MK007 diluted in 0.9% NaCl (tot. vol. 150 µL; 400 nmol/mL) and sacrificed 4 h post injection (p.i.) by isoflurane overdosage. One non-injected 12-month-old IL1B mouse served as negative control. The whole stomach and esophagus were then excised and imaged using a homemade ex vivo wide-field fluorescence imaging system. Briefly, the fluorescence images were acquired at different time exposure (0.2, 0.5, 1 and 2 s), using a 670 nm diode laser (B&W tek, Newark, DE, USA) and appropriate bandpass filter (780/10). A back illuminated EM-CCD camera (iXon DU888, Andor, Belfast, Northern Ireland, UK) was then used to capture the signal. The target-to-background ratio (TBR) of the stomach was performed by dividing the fluorescence signal in the squamocolumnar junction (SCJ) area (target lesion) with the adjacent normal gastric glandular tissue (background area) using ImageJ/Fiji software. In the organs, the signal quantification was performed by calculating the corrected total cell fluorescence/CTCF = integrated density – [(area * AVERAGE (mean background)]. For CTCF, three regions of interest (ROIs) without any tissue were used as background.

SMILES strings stand for the structures. Square brackets hold non-standard residues; d marks the D form. Side chains are listed from the residue outwards. Peptide text beside a SMILES is read from it. * marks the point of attachment. X1 = C[N+]1=C(C=CC=CC=C2N(CCCCCC(=O)*)c3ccc(S(=O)(=O)O)cc3C2(C)C)C(C)(C)c2cc(S(=O)(=O)[O-])ccc21; dTyr(3-I) = N[C@H](Cc1ccc(O)c(I)c1)C(=O)O; 2Nal = N[C@@H](Cc1ccc2ccccc2c1)C(=O)O; dNMeOrn = CN[C@H](CCCN)C(=O)O; 4Abz = Nc1ccc(C(=O)O)cc1; dDap = NC[C@@H](N)C(=O)O Some results are limits rather than exact numbers.

As for `C[C@@H](NC(=O)[C@@H](CCCNC(=N)N)NC(=O)[C@@H](CN)NC(=O)CCCCCN1C(=CC=CC=CC2=[N+](C)c3ccc(S(=O)(=O)[O-])cc3C2(C)C)C(C)(C)c2cc(S(=O)(=O)O)ccc21)C(=O)Nc1ccc(C(=O)NCCC[C@@H]2C(=O)N[C@@H](CCCNC(=N)N)C(=O)N[C@@H](Cc3ccc4ccccc4c3)C(=O)NCC(=O)N[C@H](Cc3ccc(O)c(I)c3)C(=O)N2C)cc1` [MK007] (cyclo([dTyr(3-I)][dNMeOrn]([4Abz-dA-dR-dDap-X1])R[2Nal]G)), in series [1], the “log P” value is listed as “− 1.83 ± 0.02”. The “Target-to-background ratio (TBR), fluorescence endoscopy” value in series [2] is reported as 2.13 ± 0.17. Besides, the “Target-to-background ratio (TBR), ex vivo wide-field imaging” value in series [3] (L2-IL1B mice 12-16 months, 60 nmol i.v., 4 h p.i., SCJ vs adjacent normal gastric glandular tissue, mean ± SEM, n = 5) is listed as 2.45 ± 0.24. Also, in series [3] (L2-IL1B mice, 4 h after injection, abstract statement covering ex vivo imaging and endoscopy), the “mean target-to-background ratio in dysplastic lesions (ex vivo imaging and endoscopy)” value is above 2.
